Measurements taken from publication PMC10529594, “Strasseriolides display in vitro and in vivo activity against trypanosomal parasites and cause morphological and size defects in Trypanosoma cruzi” (PLOS Neglected Tropical Diseases, 2023).
Where “and” joins values, the source holds several entries; their conditions need not be identical. Equal entries are not always repeated.

What was measured:
[1] = system: T. cruzi Tulahuen C4 trypomastigotes; assay: T. cruzi trypomastigote viability assay (resazurin fluorescence); format: cell-based, Trypanosoma cruzi; details: Tulahuen C4, 72 hours at 37°C
Description: Tulahuen T. cruzi trypomastigotes were recovered 6 days post infection from the supernatant of harvested infected L6 cells cultures after 3 hours at 37°C. 90 μL of parasite culture at a density of 5 × 10^6 cells in RPMI 1640 media were dispensed into 96 Nunc flat bottom assay plates containing 10 μL of each compound.
In the fluorescence assay, plates were incubated for 24 and 48 hours after which 10 μL of the resazurin solution were added to each well. Plates were further incubated for 24 hours and fluorescence was measured at 550/590 nm using a Tecan Infinite 200 microplate reader. […] Final maximal DMSO percentage in the well was 0.1% and compound concentrations ranged from 0.2 to 100 μM.

T. cruzi epimastigotes = assay: Microscopy analysis of T. cruzi epimastigotes (DAPI cell cycle, DIC morphology); format: cell-based, Trypanosoma cruzi; details: 72-hour drug exposure, DAPI staining
Description: For morphological phenotypic analysis and further confirmation of cell cycle analysis by FACS, T. cruzi epimastigotes were grown for 72 hours in a 6-well plate in the presence and absence of drugs. Briefly, 1 × 10^6 parasites of each condition were harvested and fixed in 4% p-formaldehyde at 4°C for 20 minutes, washed twice with cold PBS, and placed on poly-L-lysine-coated slides. Followed by dehydration in methanol, parasite samples were stained and mounted with DAPI Prolong. Digital images were acquired with a Leica DMi8 microscope in Tile Scan mode with […] excitation to quantify DAPI stained nuclei and kinetoplasts of the parasite population. Transmitted light microscopy was used to acquire differential interference contrast (DIC) images (> 80 individual cells in each of two independent experiments).

[2] = system: T. cruzi Tulahuen C4 intracellular amastigotes; assay: β-D-galactosidase transgenic T. cruzi assay (intracellular amastigotes in L6 cells, CPRG); format: cell-based; details: Trypanosoma cruzi
Description: The Trypanosoma cruzi Tulahuen strain used is a genetically modified strain that expresses the Escherichia coli β-galactosidase gene, lacZ [31]. It was kindly supplied by Marcel Kaiser (Swiss Tropical and Public Health Institute). The T. cruzi Tulahuen C4 strain was cultured in RPMI-1640 supplemented with 10% inactivated FBS (iFBS), 1.7 mM L-glutamine, 100 U/mL penicillin, and […] at 37°C and 5% CO2. L6 rat skeletal muscle cells were purchased from ATCC (reference CRL-1458) and used as host cells for infection with transgenic T. cruzi trypomastigotes. Epimastigotes were obtained by differentiation in LIT medium with 10% iFBS at 28°C from trypomastigote forms.
A Thermo Scientific Multidrop Combi dispenser was used to dispense 55 μL of T. cruzi infected L6 cells (2 ×10^3 cells per well) into 384-well Corning assay plates already containing 5 μL of each compound at concentrations ranging from 0.0015 to 50 μM and controls. The plates were incubated at 37°C for 96 hours upon which 15 μL of lysis buffer (0.5 mM CPRG, 0.5% NP40) were added to each well and further incubated for 4 hours in the dark. Absorbance at 585 nm was measured in a Perkin Elmer Envision plate reader.

[3] = set-up: method as in PMID 34865639; details: cited from earlier work

## C/C1=C\[C@H](C)[C@@H](O)C[C@@H](O)/C(C)=C/[C@H](C)C[C@@H](C)CC[C@@H]([C@@H](C)C(=O)O)OC(=O)[C@@H](C)C1 [Strasseriolide D, strasseriolide D]
[1]; Trypanosoma cruzi, TULAHUEN, 72 h
  EC50: 3.4 µM
[1]
  EC50: 3.38 µM
T. cruzi epimastigotes; EC30, average
  % Cells 0N1K, Average: 1.2%
  % Cells 1N1K1F, Average: 57.325%
  % Cells 1N*1K*1F, Average: 6.55%
  % Cells 1N*2K2F, Average: 2.85%
  % Cells 2N1K, Average: 4.5%
  % Cells 2N2K2F, Average: 26.325%
  % Cells Other, Average: 1.25%
T. cruzi epimastigotes; EC30, single replicates
  % Cells 0N1K, individual replicates: 0% and 2.4%
  % Cells 1N1K1F, individual replicates: 56.25% and 58.4%
  % Cells 1N*1K*1F, individual replicates: 7.5% and 5.6%
  % Cells 1N*2K2F, individual replicates: 2.5% and 3.2%
  % Cells 2N1K, individual replicates: 5% and 4%
  % Cells 2N2K2F, individual replicates: 26.25% and 26.4%
  % Cells Other, individual replicates: 2.5% and 0%
T. cruzi epimastigotes; EC70, average
  % Cells 0N1K, Average: 0.4587%
  % Cells 1N1K1F, Average: 62.2955%
  % Cells 1N*1K*1F, Average: 3.438%
  % Cells 1N*2K2F, Average: 5.902%
  % Cells 2N1K, Average: 3.953%
  % Cells 2N2K2F, Average: 19.5971%
  % Cells Other, Average: 4.355%
T. cruzi epimastigotes; EC70, single replicates
  % Cells 0N1K, individual replicates: 0% and 0.9174%
  % Cells 1N1K1F, individual replicates: 56.701% and 67.8899%
  % Cells 1N*1K*1F, individual replicates: 4.124% and 2.752%
  % Cells 1N*2K2F, individual replicates: 7.216% and 4.587%
  % Cells 2N1K, individual replicates: 5.155% and 2.752%
  % Cells 2N2K2F, individual replicates: 22.6804% and 16.5138%
  % Cells Other, individual replicates: 4.124% and 4.587%
[2]; TULAHUEN, L6, T. cruzi amastigotes, 96-hour treatment, 0.00152588 µM, read-out: Growth inhibition (%) Average
  inhibition at 0.00152588 µM: 7.88%
[2]; TULAHUEN, L6, T. cruzi amastigotes, 96-hour treatment, 0.00305176 µM, read-out: Growth inhibition (%) Average
  inhibition at 0.00305176 µM: 6.33%
[2]; TULAHUEN, L6, T. cruzi amastigotes, 96-hour treatment, 0.00610352 µM, read-out: Growth inhibition (%) Average
  inhibition at 0.00610352 µM: 2.28%
[2]; TULAHUEN, L6, T. cruzi amastigotes, 96-hour treatment, 0.012207 µM, read-out: Growth inhibition (%) Average
  inhibition at 0.012207 µM: 4.26%
[2]; TULAHUEN, L6, T. cruzi amastigotes, 96-hour treatment, 0.0244141 µM, read-out: Growth inhibition (%) Average
  inhibition at 0.0244141 µM: 4.84%
[2]; TULAHUEN, L6, T. cruzi amastigotes, 96-hour treatment, 0.0488281 µM, read-out: Growth inhibition (%) Average
  inhibition at 0.0488281 µM: 2.75%
[2]; TULAHUEN, L6, T. cruzi amastigotes, 96-hour treatment, 0.0976562 µM, read-out: Growth inhibition (%) Average
  inhibition at 0.0976562 µM: 2.22%
[2]; TULAHUEN, L6, T. cruzi amastigotes, 96-hour treatment, 0.195312 µM, read-out: Growth inhibition (%) Average
  inhibition at 0.195312 µM: 7.23%
[2]; TULAHUEN, L6, T. cruzi amastigotes, 96-hour treatment, 0.390625 µM, read-out: Growth inhibition (%) Average
  inhibition at 0.390625 µM: 4.8%
[2]; TULAHUEN, L6, T. cruzi amastigotes, 96-hour treatment, 0.78125 µM, read-out: Growth inhibition (%) Average
  inhibition at 0.78125 µM: 4.2%
[2]; TULAHUEN, L6, T. cruzi amastigotes, 96-hour treatment, 1.5625 µM, read-out: Growth inhibition (%) Average
  inhibition at 1.5625 µM: 8.54%
[2]; TULAHUEN, L6, T. cruzi amastigotes, 96-hour treatment, 3.125 µM, read-out: Growth inhibition (%) Average
  inhibition at 3.125 µM: 21.2%
[2]; TULAHUEN, L6, T. cruzi amastigotes, 96-hour treatment, 6.25 µM, read-out: Growth inhibition (%) Average
  inhibition at 6.25 µM: 66.1%
[2]; TULAHUEN, L6, T. cruzi amastigotes, 96-hour treatment, 12.5 µM, read-out: Growth inhibition (%) Average
  inhibition at 12.5 µM: 100%
[2]; TULAHUEN, L6, T. cruzi amastigotes, 96-hour treatment, 25 µM, read-out: Growth inhibition (%) Average
  inhibition at 25 µM: 112%
[2]; TULAHUEN, L6, T. cruzi amastigotes, 96-hour treatment, 50 µM, read-out: Growth inhibition (%) Average
  inhibition at 50 µM: 113%
[2]; Tulahuen C4 in L6 cells, 96 h, CPRG
  EC50: 5.61 µM
[3]
  liver microsome clearance: low
